These results are taken from patent EP0116439A2, “Fatty acid containing hair tonic composition” (priority 1983, dated 1984).

Assay [1] has as its target testosterone 5α-reductase. Briefly: testosterone 5α-reductase inhibitory activity (conversion of labelled testosterone to 5α-dihydrotestosterone). Type of assay: biochemical, rats. To be noted: microsome from rat prostate gland cells, 25°C, 60 minutes, pH 6.6. The protocol:
The Sa-reductase inhibitory activity was determined as follows.
Prostate gland cells of rats were crushed and a specimen of testosterone 5α-reductase was then prepared by separating microsome from the crushed liquid mixture. The conversion of the testosterone to 5α-dihydrotestosterone by the use of the above-prepared enzyme specimen was monitored by radioisotopically labelled testosterone. The reaction mixture was extracted with ethyl acetate and the extract was developed twice by silica gel thin layer chromatography (solvent system, dichloromethane: cyclohexane:acetone = 15:4:1). The amount of 5α-dihydrotestosterone were determined from the intensities of the radioactivity.
A 30 µl amount of a 0.05 M phosphate buffer (pH = 6.6), 10 µl of an enzyme specimen, 8.5 pmol of labelled testosterone, 50 nmol of a reduced form of NADP (nicotinamide adenine dinucleotide phosphate), and 10 µl of a test sample were mixed (final volume = 50 µl). The mixture was included at a temperature of 25°C for 60 minutes.
The reaction was stopped by the addition of 100 ul of ethyl acetate, and the reaction mixture was extracted by vigorous shaking. The extract was developed in the same manner as mentioned above and the intensity of the radioisotope was measured by using a scintillation counter.
The above-mentioned determination was applied to the samples having various concentrations. The 5a--reductase inhibitory activity was obtained as a inhibitory rate (%) or a 50% inhibitory concentration (^IC50).

Assay [2] concerns male rabbits. Briefly: fur growth on shorn back of rabbits. Type of assay: in vivo. More on the design: Difference b, Average: unit not given here. To be noted: for Grown fur length Test side a', Average: 0.2% fatty acid solution in 80% aqueous ethanol; for Difference b, Average: test side minus control side, 0.2% fatty acid solution. The protocol:
Ten week old male rabbits were shorn on the back. A 0.2% fatty acid solution in 80% aqueous ethanol solution was applied, twice a day, to a half-side of the shorn portion of each rabbit for one week. As a control, a 80% aqueous ethanol solution was also applied, twice a day, to the other half-side of the shorn portion of each rabbit for one week (two week for linoleic acid). The length of the grown fur was measured.

The compound `CCCCC/C=C\C/C=C\C/C=C\C/C=C\CCCC(=O)O` [Arachidonic acid, arachidonic acid] displayed a concentration for half-maximal inhibition (IC50) in assay [1] of 150 µM. For the same compound, in assay [2] (twice a day for one week), the “Grown fur length Test side a', Average” value is reported as 7.561^*2 and the “Difference b, Average” value was found to be 0.78.

In the case of `CCCCCCCCCCCC(=O)O` [Lauric acid, lauric acid], the concentration for half-maximal inhibition (IC50) in assay [1] stood at 600 µM. Also, in assay [2] (twice a day for one week), the “Grown fur length Test side a', Average” value was 5.667^*2 and the “Difference b, Average” value came to 0.776.

The compound `CCCCC/C=C\C/C=C\CCCCCCCC(=O)O` [Linoleic acid, linoleic acid] returned a half-inhibitory concentration (IC50) in assay [1] of 180 µM. In addition, in assay [2] (twice a day, two week), the “Grown fur length Test side a', Average” value is 9.98^*2 and the “Difference b, Average” value worked out at 0.43.

For the compound `CC/C=C\C/C=C\C/C=C\CCCCCCCC(=O)O` [Linolenic acid, linolenic acid], in assay [2] (twice a day for one week), the “Grown fur length Test side a', Average” value is recorded as 5.46^*2 and the “Difference b, Average” value is 0.45.

Compound `CCCCCCCCCCCCCC(=O)O` [Myristic acid, myristic acid] yielded an IC50 in assay [1] of 1800 µM. Besides, in assay [2] (twice a day for one week), the “Grown fur length Test side a', Average” value is given as 6.583^*2 and the “Difference b, Average” value was determined as 0.661.

For `CCCCCCCC/C=C\CCCCCCCC(=O)O` [Oleic Acid, oleic acid], in assay [1], half-maximal inhibition (IC50) required 320 µM. Moreover, in assay [2] (twice a day for one week), the “Grown fur length Test side a', Average” value was 6.102^*2 and the “Difference b, Average” value is on record as 0.626.

In the case of `CCCCCCCCCCCCCCCC(=O)O` [Palmitic acid, palmitic acid], the IC50 in assay [1] turned out to be 300 µM. In assay [2] (twice a day for one week), the “Grown fur length Test side a', Average” value is 6.056^*2 and the “Difference b, Average” value was 0.958.

Consider `CCCCCC/C=C\CCCCCCCC(=O)O` [Palmitoleic acid, palmitoleic acid], for which, in assay [1], half-maximal inhibition (IC50) was put at 180 µM. Besides, in assay [2] (twice a day for one week), the “Grown fur length Test side a', Average” value is listed as 8.051^*2 and the “Difference b, Average” value stood at 0.862.

`CCC=CC=CC=CC=CCCCCCCCC(=O)O` [Parinaric acid, parinaric acid] had a half-maximal inhibitory concentration (IC50) in assay [1] of 1100 µM. In assay [2] (twice a day for one week), the “Grown fur length Test side a', Average” value is reported as 6.83^*2 and the “Difference b, Average” value came out at 0.60.

`CCCCCCCCCCC/C=C\CCCCC(=O)O` [Petroselinic acid, petroselinic acid] displayed an IC50 in assay [1] of 280 µM. Also, in assay [2] (twice a day for one week), the “Grown fur length Test side a', Average” value is 6.66^*2 and the “Difference b, Average” value came to 0.50.

On to `CCCCCCCCCC(=O)O` [n-Capric acid, n-capric acid], for which half-maximal inhibition in assay [1] (IC50) was put at 500 µM. Further, in assay [2] (twice a day for one week), the “Grown fur length Test side a', Average” value is reported as 7.542^*2 and the “Difference b, Average” value amounted to 0.557.

With `CCCCCCCC(=O)O` [n-Caprylic acid, n-caprylic acid], in assay [1], the concentration for half-maximal inhibition (IC50) was 1700 µM. Also, in assay [2] (twice a day for one week), the “Grown fur length Test side a', Average” value is 5.38^*2 and the “Difference b, Average” value came out at 0.32.

As usually defined, the IC50 is the concentration at which inhibition is half-maximal.
